Measurements from PubChem BioAssay (NCI).
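Results reflect a 48-hour exposure of cells in 96-well plates to compound at five concentrations. TGI is the concentration that stops growth completely.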

What was measured:
Experiment in all cases: NCI anticancer screen, dose series, 48 h
PC-3 prostate = system: PC-3 prostate
T-47D breast = system: T-47D breast
MCF7 breast = system: MCF7 breast
MDA-MB-231 breast = system: MDA-MB-231 breast
NCI/ADR-RES ovarian = system: NCI/ADR-RES ovarian
HS 578T breast = system: HS 578T breast

SMILES	TGI (PC-3 prostate)	TGI (T-47D breast)	TGI (MCF7 breast)	TGI (MDA-MB-231 breast)	TGI (NCI/ADR-RES ovarian)	TGI (HS 578T breast)
N#CC1(C#N)[C@@H]2CCC=C(Sc3ccccc3)[C@@H]21	27.5 µM	52.4 µM	23.4 µM	43.7 µM	40.4 µM	> 100 µM
COc1ccc2c(=O)c3c([nH]c2c1)OCC3=O	> 100 µM	> 100 µM	> 100 µM	> 100 µM	> 100 µM	> 100 µM
COC(=O)c1sc2c(=O)c(C(=O)OC)c(C(=O)OC)sc2c(=O)c1C(=O)OC	> 100 µM	> 100 µM	> 100 µM	> 100 µM	> 100 µM	> 100 µM
Cc1cccc2c(NCCN(C)C)c3cccc(C(=O)NCCN(C)C)c3nc12	6.73 µM	19.7 µM	2.85 µM	0.728 µM	11.6 µM	1.82 µM
C1=CCC[C@@H]2CN3CCCC/C=C\CCCC[C@H]4C[C@H](CN(CCCCCCCC1)C4)[C@H]2CC3	41.2 µM	20.8 µM	16.4 µM	16.4 µM		20.2 µM
O=C(O)c1ccccc1/C=C1/Cc2ccc3c(c2C1=O)CCC3	> 100 µM	> 100 µM	> 100 µM		> 100 µM	> 100 µM
COc1ccc(/C=C2/SC(=Nc3ccccc3)N(NC(=O)Cc3ccccc3)C2=O)c(OC)c1		> 100 µM	> 100 µM	> 100 µM	> 100 µM	> 100 µM
O=S1(=O)c2ccccc2N2C(c3ccccc3)=NOC2(c2ccccc2)CC1c1ccc(Br)cc1 (configuration not stated)	> 100 µM	> 100 µM	> 100 µM	> 100 µM	> 100 µM	> 100 µM
O=C(O)/C=C/c1ccc(OS(=O)(=O)O)cc1	> 100 µM	> 100 µM	> 100 µM	> 100 µM	> 100 µM	> 100 µM
Cc1ccc2nc(CN(CCO)CCO)cc(=O)n2c1	> 100 µM		> 100 µM	> 100 µM	> 100 µM	> 100 µM
CN(/N=C/c1ccc(Cl)c(Cl)c1)C1=NCCCCN1	> 100 µM	> 100 µM	54.3 µM	> 100 µM	> 100 µM	> 100 µM
O=C1/C(=C/c2ccccc2)CCc2ccc([N+](=O)[O-])cc21	> 100 µM	> 100 µM	> 100 µM	> 100 µM	> 100 µM	> 100 µM
CCOC(=O)/C(=C\c1cn(C(C)=O)c2ccccc12)P(C)(=O)OCC (configuration not stated)	> 100 µM	> 100 µM	> 100 µM	81.7 µM	> 100 µM	
CNC(=O)N1CN(c2ccccc2)C2(CCN(Cc3ccccc3)CC2)C1=O	> 100 µM	11 µM	> 100 µM	> 100 µM	51.3 µM	
Cc1ccc(N=C2OP(=O)(Nc3ccc(C)cc3)Oc3ccccc32)cc1 (configuration not stated)	> 100 µM	> 100 µM	> 100 µM	> 100 µM	> 100 µM	> 100 µM
COn1oc(=O)c2ccccc21	> 100 µM		> 100 µM	> 100 µM	> 100 µM	> 100 µM
NNC(=O)CC(=O)Nc1ccc(S(=O)(=O)c2ccc(NC(=O)CC(=O)NN)cc2)cc1	> 100 µM	> 100 µM		> 100 µM	> 100 µM	> 100 µM
Cc1nn(C(=O)Cc2ccccc2)c2c1C(c1ccc([N+](=O)[O-])cc1)SC(N)=N2 (configuration not stated)	> 100 µM	> 100 µM	> 100 µM	> 100 µM		> 100 µM
O=C1CCCCCCCCCCC1CN1CCOCC1 (configuration not stated)	> 100 µM	> 100 µM	> 100 µM	> 100 µM		> 100 µM
O=C(c1ccccc1)N(CCCCNC(=O)C(F)(F)F)CCCNC(=O)C(F)(F)F		> 100 µM	> 100 µM	> 100 µM	> 100 µM	> 100 µM
COc1ccccc1/C=N/Nc1nnc2c3ccccc3c3ncccc3c2n1	> 100 µM	> 100 µM	> 100 µM	> 100 µM	> 100 µM	> 100 µM
CCCCc1nc(C)oc1C(C)C	> 100 µM	> 100 µM	> 100 µM	> 100 µM	> 100 µM	> 100 µM
CN(C)/C=C/c1c2c(nc3ccccc13)C(=O)c1cccnc1C2=O	11.1 µM	21.6 µM		> 100 µM	1.9 µM	4.65 µM
N#Cc1sc2c(c1OC(=O)c1ccc(Cl)cc1Cl)c(=O)n(-c1ccccc1)c(=S)n2-c1ccccc1	> 100 µM	> 100 µM	73.4 µM	75.1 µM	50.3 µM	89.6 µM
